# Experimental data reported in patent US6781000B1, “Alpha-ketoamide inhibitors of 20S proteasome” (CV Theurapeutics, Inc., priority 1998, dated 2004).
# pIC50: −log10 of the molar value.
# Biological target: T1, peptidylglutamyl activity of 20S proteasome (Bos taurus, UniProt Q2TBP0+Q3MHN0)
# T1 construct: was purified to homogeneity from bovine brain according to published methods; from tissue; host or cells: bovine brain
# Assay: 20S proteasome peptidylglutamyl activity inhibition assay (CBZ-D-Ala-Leu-Glu-AMC cleavage)
# Format: biochemical
# Conditions: Example 6: 2 μg 20S proteasome from bovine brain, substrate CBZ D-Ala-Leu-Glu-AMC, 15 minutes at 37° C.
# Description: Compounds of this invention prepared according to the method of Example 1 were also tested as follows. The 20S catalytic subunit of the proteasome (also known as the multicatalytic proteinase complex) was purified to homogeneity from bovine brain according to published methods (Wilk S. and Orlowski, M. 1983, 40 842 J. Neurochem). […] of the complex is measured by the increase in fluorescence following cleavage of the substrate peptide CBZ D-Ala-Leu-Glu-(7-amino-4-methyl coumarin). The standard in vitro assay consists of 2 μg 20S proteasome, 0.1-100 μg/ml proteasome inhibitor in […] 50 mM HEPES, containing 0.1% sodium dodecyl sulphate, pH 7.5. The proteolytic reaction is initiated by the addition of […] fluorogenic peptide substrate and allowed to progress for 15 minutes at 37° C. The reaction is terminated by the addition of […] 100 mM acetate buffer, pH 4.0. The rate of proteolysis is directly proportional to the amount of liberated aminomethylcoumarin which is measured by fluorescent spectroscopy (EX 370 nm, EM 430 nm). Compounds 1-207 were tested for peptidylglutamyl activity inhibition at >10 μg/mL. Compound 190 was active at 5 μg/mL.
row,Structure (SMILES),"peptidylglutamyl activity inhibition, active at [µg/mL]"
1,CC(C)CC(NC(=O)C(Cc1ccc(-c2ccccc2)cc1)NC(=O)C(=O)Cc1c[nH]c2ccccc12)C(=O)NC(Cc1c[nH]cn1)C(=O)O (stereo not shown) [Compound 190],5

# Biological target: T2, chymotrypsin-like activity of 20S proteasome (Bos taurus, UniProt Q2TBX6+Q32KL2)
# T2 construct: was purified to homogeneity from bovine brain according to published methods; from tissue; host or cells: bovine brain
# Assay: 20S proteasome chymotryptic activity inhibition assay (Suc-Leu-Leu-Val-Tyr-AMC cleavage)
# Format: biochemical
# Conditions: 2 μg 20S proteasome from bovine brain, 50 μM fluorogenic substrate, 15 minutes at 37° C., pH7.5
# Summary of the method: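 Bovine brain 20S proteasome (2 μg) with inhibitor at 0.1-100 μg/ml in 50 mM HEPES, 0.1% SDS, pH7.5. Reaction started with 50 μM Suc-LLVY-AMC, run 15 min at 37° C, stopped with pH 4.0 acetate; liberated AMC read by fluorescence (EX 370 nm, EM 430 nm).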
Structure (SMILES),IC50 for the inhibition of the chymotrypsin-like activity of 20S proteasome [mg/L],pIC50
CC(C)CC(NC(=O)C(Cc1ccc2ccccc2c1)NC(=O)C(=O)Cc1c[nH]c2ccccc12)C(=O)NC(C(=O)O)C(C)C (stereo not shown) [Compound 50],>10,
CC(C)CC(NC(=O)CNC(=O)C(=O)Cc1c[nH]c2ccccc12)C(=O)NC(CO)C(=O)O (stereo not shown) [Compound 89],>10,
CC(C)CC(NC(=O)C(CC(C)C)NC(=O)C(CC(C)C)NC(=O)C(=O)Cc1c[nH]c2ccccc12)C(=O)O (stereo not shown) [Compound 22],>10,
CC(C)CC(NC(=O)C(Cc1ccc2ccccc2c1)NC(=O)C(=O)Cc1c[nH]c2ccccc12)C(=O)NC(C)C(=O)O (stereo not shown) [Compound 80],>10,
CC(C)CC(NC(=O)C(C)NC(=O)C(=O)Cc1c[nH]c2ccccc12)C(=O)NC(C(=O)O)C(C)C (stereo not shown) [Compound 42],>10,
CC(C)CC(NC(=O)C(Cc1ccc(-c2ccccc2)cc1)NC(=O)C(=O)Cc1c[nH]c2ccccc12)C(=O)NC(Cc1cscn1)C(=O)O (stereo not shown) [Compound 198],>10,
CC(C)CC(NC(=O)C(Cc1ccc(-c2ccccc2)cc1)NC(=O)C(=O)Cc1c[nH]c2ccccc12)C(=O)NC(C(=O)O)c1ccccc1 (stereo not shown) [Compound 194],>10,
CC(C)CC(NC(=O)C(Cc1ccc(O)cc1)NC(=O)C(=O)Cc1c[nH]c2ccccc12)C(=O)NC(CCC(=O)O)C(=O)O (stereo not shown) [Compound 158],,< 4.78
CC(C)C[C@@H](NC(=O)[C@@H](NC(=O)C(=O)Cc1c[nH]c2ccccc12)C(C)C)C(=O)NCC(=O)O [Compound 59],,< 4.67
CC(C)CC(NC(=O)C(=O)Cc1c[nH]c2ccccc12)C(=O)NC(CC(C)C)C(=O)NC(C(=O)O)C(C)C (stereo not shown) [Compound 32],>10,
CC(C)CC(NC(=O)C(C)NC(=O)OCc1c[nH]c2ccccc12)C(=O)NC(C)C(=O)O (stereo not shown) [Compound 72],>10,
CC(C)CC(NC(=O)C(Cc1ccc(-c2ccccc2)cc1)NC(=O)C(=O)Cc1c[nH]c2ccccc12)C(=O)NC(Cc1cccnc1)C(=O)O (stereo not shown) [Compound 192],3,
CC(C)CC(NC(=O)CNC(=O)C(=O)Cc1c[nH]c2ccccc12)C(=O)NCC(=O)O (stereo not shown) [Compound 184],>10,
CCC(C)C(NC(=O)C(=O)Cc1c[nH]c2ccccc12)C(=O)NC(CC(C)C)C(=O)NCC(=O)O (stereo not shown) [Compound 62],>10,
CC(C)CC(NC(=O)C(Cc1ccc(-c2ccccc2)cc1)NC(=O)C(=O)Cc1c[nH]c2ccccc12)C(=O)NC(Cc1c[nH]cn1)C(=O)O (stereo not shown) [Compound 190],3,
